A word on the MBC: it is the smallest concentration meeting the test's criterion for killing. A higher MBC goes with less potent killing. What is called MIC is the least concentration at which growth counts as inhibited. A high value points to a less susceptible organism.

These results are taken from paper PMC8894198, “Biosynthetic Microcin J25 Exerts Strong Antibacterial, Anti-Inflammatory Activities, Low Cytotoxicity Without Increasing Drug-Resistance to Bacteria Target” (Frontiers in Immunology, 2022).

Common to all, as to format: cell-based
In test [1] the test system is E. coli K88. To be noted: sublethal concentrations 0.25 × and 0.5 × MIC. As for the experimental part:
Mutation rates were based on rifampicin and refined ([28], [29]). Overnight cultures of E. coli K88 were diluted in 50 mL of LB broth at a ratio of 1:10,000 and grown for 3.5 h at 37°C. […] Eleven 1-mL replicates of each treatment group were grown at 37°C for 24 h. These cultures were then serially diluted and plated on LB agar plates containing 100 μg/mL rifampicin. Afterwards, plates were incubated at 37°C for 48 h. Single colonies on the plates were counted to determine CFU/mL. Mutagenesis rates were calculated using the bz-rates-mutation rate calculator (http://www.lcqb.upmc.fr/bzrates).

The test system of test [2] is E. coli BRO 528. Nature of the test: MIC/MBC, clinical isolate resistant to colistin sulfate, lincomycin and tilmicosin. To be noted: source broiler stool. As for the experimental part: (§1) The minimum inhibitory concentration (MIC) refers to the lowest concentration that can produce a significant hindrance to bacterial growth in a drug sensitivity test by adopting a broth dilution, with certain refinements and modifications based on the previous description ([25], [26]). In short, MccJ25 was dissolved in sterilized distilled water (SDW), serial 2-fold dilutions were prepared in Mueller-Hinton broth (MHB) through a 96-well microtiter plate, and the final concentration of MccJ25 was maintained in the range of 0.003125 to 256 μg/mL. Then, 2 μL of standard and clinically relevant overnight broth cultures of bacteria were inoculated into each well at a concentration of 5 × 10^6 CFU/mL. Microtiter plates were incubated at 37°C for one full day. Two groups were set up: positive (medium with inoculum) and negative (medium only) controls. The minimum bactericidal concentration (MBC) was measured in LB medium and refers to the first drug dilution value at which the initial bacterial concentration was reduced by 99.99%. The final analysis was determined by the results of three replicated and independent experiments. To further assess and clarify the antimicrobial activity of MccJ25, the protective ability against E. coli adhesion, live/dead assay, and killing curve were performed, the detailed methods were provided in Supplementary Materials .

For test [3], the system named is E. coli SWI 541. Described as above. To be noted: source pig stool. As for the experimental part:
as §1

Test [4] deals with E. coli SWI 441. The description is as above. To be noted: source pig stool. As for the experimental part: as §1
For test [5], the system named is E. coli SWI 531. Described as above. The conditions noted are these: source pig tissue. As for the experimental part:
as §1

Setting [6] is: LB medium, 99.99% reduction, three independent experiments.
Where [7] appears, read: broth dilution in MHB, 37°C, three independent experiments.

Values after ≈ are worked out from the molar mass of the structure shown. Where a SMILES comes first, the peptide text is derived from it. Bridges are numbered along the chain shown (N, C = ends).

On to `CC[C@H](C)[C@H](NC(=O)CNC(=O)[C@@H](NC(=O)[C@H](Cc1ccccc1)NC(=O)[C@H](Cc1ccc(O)cc1)NC(=O)[C@@H]1CCC(=O)NCC(=O)NCC(=O)N[C@@H](C)C(=O)NCC(=O)N[C@@H](Cc2c[nH]cn2)C(=O)N[C@@H](C(C)C)C(=O)N2CCC[C@H]2C(=O)N1)C(C)C)C(=O)NCC(=O)N[C@H](C(=O)N1CCC[C@H]1C(=O)N[C@H](C(=O)N[C@@H](CO)C(=O)N[C@@H](Cc1ccccc1)C(=O)N[C@@H](Cc1ccc(O)cc1)C(=O)NCC(=O)O)[C@@H](C)CC)[C@@H](C)O` [MccJ25, microcin J25] (GGAGHVPEYFVGIGTPISFYG-OH; lactam N-8 (inferred); C-terminus assumed), for which the “mutation rate compared to the control” value in test [1] is reported as “did not show a greater difference in mutation rate compared to the control”. Moreover, the MBC in test [2] (setting [6]) stood at 2.000 µg/mL (≈ 0.949 µM); in test [3] (setting [6]), 2.000 µg/mL (≈ 0.949 µM); in test [4] (setting [6]), 0.500 µg/mL (≈ 0.237 µM); in test [5] (setting [6]), 0.500 µg/mL (≈ 0.237 µM). Also, the minimal inhibitory concentration (MIC) was 0.500 µg/mL (≈ 0.237 µM) in test [2] (setting [7]), 0.500 µg/mL (≈ 0.237 µM) in test [3] (setting [7]), 0.060 µg/mL (≈ 0.0285 µM) in test [4] (setting [7]) and 0.060 µg/mL (≈ 0.0285 µM) in test [5] (setting [7]). Moreover, the MIC/MBC is 0.250 in test [2] (ratio), 0.250 in test [3] (ratio), 0.120 in test [4] (ratio) and 0.120 in test [5] (ratio).
